Format in all cases: cell-based
Experiment [1] concerns Human lymphoma jurkat cells. The experiment in a line: Killing of cultured Jurkats with and without anti-Fas (propidium iodide, Facs). The following applies: 19 hours. The procedure: Jurkats are a T-cell derived lymphoma cell line which expresses both FAS receptor and Fas-L. These cells, however, are only mildly sensitive to Fas-L/anti-Fas induced apoptosis. Select compounds were tested for their ability to kill jurkats. Additionally, we investigated the ability of select compounds to sensitize jurkats to anti-Fas mediated apoptosis.
Human lymphoma jurkat cells were cultured in suspension in 24 well plates. Jurkat cell were treated with test compounds either alone or in the presence of suboptimal doses of anti-Fas antibody. […] Cells were incubated with propidium iodide and the percentage of cells that incorporated the stain was counted by Facs.

The test system of experiment [2] is Human prostate DU145 cells. As to the kind of experiment: Killing of DU145 prostate cancer cells (Alamar Blue, 7 day treatment). The method, then: Prostate cancer is often resistant to traditional chemotherapies. DU145 is representative prostated cancer cell line. DU145 cells were cultured in the presence of various concentrations of compound 136. Compound 136 kills 100% of the cells at 10 μM, with an IC50 of approximately 7 μM.
Human prostate DU145 cells were cultured in 96 well dishes. Cells were treated with various concentrations of test compounds for 7 days. Media was then removed and replaced with fresh media containing Alamar Blue. The cells were incubated for a further 4 hours and Alamar blue and conversion was assessed by fluorescence. Compound effectiveness was determined by assessing the reduction in Alamar blue bioconversion following 7 day treatment.

The subject of experiment [3] is Human lung H460 cells. As to the kind of experiment: Killing of H460 cells (Alamar Blue, 24 hour treatment). The method, then: H460 is representative of a […] cancer cell line.
Human lung H460 cells (7000 cells/well) were cultured in 96 well dishes. Cells were treated with various concentrations of test compounds for 24 hours. Media was then removed and replaced with fresh media containing Alamar Blue. The cells were incubated for a further 4 hours and Alamar blue and conversion was assessed by fluorescence. Compound effectiveness was determined by assessing the reduction in Alamar blue bioconversion following 24 hour treatment.

The mark [4] stands for this setting: Dose 0.3, with anti-Fas (5 ng/mL).
[5] abbreviates: Dose 1, with anti-Fas (5 ng/mL).
Setting [6] is: Dose 3, with anti-Fas (5 ng/mL).
[7] abbreviates: Dose 10, with anti-Fas (5 ng/mL).
Where [8] appears, read: Dose 30, with anti-Fas (5 ng/mL).

The values below come from patent publication US20060199835A1, “Neuroprotective and anti-proliferative compounds” (priority 2004, published 2006).

“3-(3-(amidinothio)propyl)indol-1-yl)-4-(5-benzyloxy-1-methylindol-3-yl)-4-pyrrole-2,5-dione [Example 168]”: the “Survival % Without Anti-Fas” value is listed as 91% in experiment [1] (Dose 0.3 (μM)); 89% in experiment [1] (Dose 1 (μM)); 46% in experiment [1] (Dose 3 (μM)); 1% in experiment [1] (Dose 10 (μM)); 0% in experiment [1] (Dose 30 (μM)). The “Survival % With Anti-Fas” value in experiment [1] (setting [4]) turned out to be 49%; in experiment [1] (setting [5]) it was 49%; in experiment [1] (setting [6]), 1%; in experiment [1] (setting [7]) it was 0%; in experiment [1] (setting [8]), 0%.

In experiment [2] (10 μM), `CN(C)CCCn1cc(C2=C(n3ccc4ccccc43)C(=O)NC2=O)c2cc(OCc3ccccc3)ccc21` [Example 136, 3-(5-benzyloxy-1-(3-dimethylaminopropyl)indol-3-yl)-4-(indol-1-yl)-pyrrole-2,5-dione] showed a cells killed of 100%. For the same molecule, in experiment [2] (Homo sapiens, DU-145, 168 h, 7 days of treatment), the IC50 – broadly, the concentration needed to halve the response being measured – is approximately 7 µM.

In the case of `N=C(N)SCCCn1c2ccccc2c2c3c(n4c5ccccc5cc4c21)C(=O)NC3=O` [Example 145], the “Survival % Without Anti-Fas” value in experiment [1] (Dose 3 (μM)) is 93%; in experiment [1] (Dose 10 (μM)), 11%. For the same molecule, in experiment [1] (setting [6]), the “Survival % With Anti-Fas” value was 35%.

Regarding `Cc1cn(C2=C(c3cn(CCCSC(=N)N)c4ccccc34)C(=O)NC2=O)c2ccccc12` [Example 146, 3-(3-((amidiothio)propyl)indol-3-yl)-4-(3-methylindol-1-yl)-pyrrole-2,5-dione], the “Survival % Without Anti-Fas” value in experiment [1] (Dose 3 (μM)) is more than 90%; in experiment [1] (Dose 10 (μM)), 0%. For the same molecule, the “Survival % With Anti-Fas” value in experiment [1] (setting [6]) is reported as 20%.

For `N=C(N)SCCCn1cc(C2=C(n3ccc4cc(OCc5ccccc5)ccc43)C(=O)NC2=O)c2ccccc21` [Example 147, 3-(3-((amidiothio)propyl)indol-3-yl)-4-(5-benzyloxyindol-1-yl)-pyrrole-2,5-dione], the “Survival % Without Anti-Fas” value in experiment [1] (Dose 3 (μM)) was more than 90%; in experiment [1] (Dose 10 (μM)), 0%. In addition, the “Survival % With Anti-Fas” value in experiment [1] (setting [6]) was 20%.

Take `N=C(N)SCCCn1cc(C2=C(n3ccc4ccccc43)C(=O)NC2=O)c2cc(OCc3ccccc3)ccc21` [Example 148, 3-(3-((amidiothio)propyl)-5-benzyloxyindol-3-yl)-4-(indol-1-yl)-pyrrole-2,5-dione]: the “Survival % Without Anti-Fas” value in experiment [1] (Dose 3 (μM)) is on record as more than 90%; in experiment [1] (Dose 10 (μM)) it was 0%. Also, the “Survival % With Anti-Fas” value in experiment [1] (setting [7]) worked out at 20%.

For `Cc1cn(C2=C(c3cn(CCCSC(=N)N)c4ccc(OCc5ccccc5)cc34)C(=O)NC2=O)c2ccccc12` [Example 149, 3-(3-((amidiothio)propyl)-5-benzyloxyindol-3-yl)-4-(3-methylindol-1-yl)-pyrrole-2,5-dione], the “Survival % Without Anti-Fas” value is given as more than 90% in experiment [1] (Dose 3 (μM)) and 0% in experiment [1] (Dose 10 (μM)). The “Survival % With Anti-Fas” value in experiment [1] (setting [6]) worked out at 2%.

Turning to `Cc1cc2ccccc2n1C1=C(c2cn(CCCSC(=N)N)c3ccc(OCc4ccccc4)cc23)C(=O)NC1=O` [Example 150, 3-(3-((amidiothio)propyl)-5-benzyloxyindol-3-yl)-4-(2-methylindol-1-yl)-pyrrole-2,5-dione], the “Survival % Without Anti-Fas” value in experiment [1] (Dose 3 (μM)) is more than 90%; in experiment [1] (Dose 10 (μM)) it was 0%. The “Survival % With Anti-Fas” value in experiment [1] (setting [6]) was found to be 5%.

For `N=C(N)SCCCn1cc(C2=C(N3CCc4ccccc43)C(=O)NC2=O)c2ccccc21` [Example 159, 3-(3-((amidiothio)propyl)indol-3-yl)-4-(indolin-1-yl)-pyrrole-2,5-dione], the “Survival % Without Anti-Fas” value in experiment [1] (Dose 3 (μM)) is listed as more than 90%; in experiment [1] (Dose 10 (μM)) it was 17%. In addition, in experiment [1] (setting [6]), the “Survival % With Anti-Fas” value is listed as 10%.

With `Cn1cc(C2=C(n3cc(CCCSC(=N)N)c4ccccc43)C(=O)NC2=O)c2ccccc21` [Example 167], the “Survival % Without Anti-Fas” value in experiment [1] (Dose 0.3 (μM)) is given as 98%; in experiment [1] (Dose 1 (μM)) it was 88%; in experiment [1] (Dose 3 (μM)), 50%; in experiment [1] (Dose 10 (μM)), 0%; in experiment [1] (Dose 30 (μM)) it was 0%. Also, the “Survival % With Anti-Fas” value in experiment [1] (setting [4]) came to 43%; in experiment [1] (setting [5]), 17%; in experiment [1] (setting [6]) it was 5%; in experiment [1] (setting [7]), 0%; in experiment [1] (setting [8]), 0%. The IC50 in experiment [3] was approximately 3 µM.
